Where two headings read alike, the source gives them in different places. Some results are limits rather than exact numbers.

Data set [1] has as its target ErbB2 insYVMA (HER2-YVMA, SEQ ID NO: 2) (Homo sapiens, UniProt P04626, INS775YVMA/P1170A). As to the kind of experiment: biochemical. Particulars: ErbB2 insYVMA enzyme assay.
A further data set addresses ErbB2 WT (Homo sapiens (Human), UniProt P04626). As to the kind of experiment: ErbB enzyme assay (CisBio HTRF KinEASE-TK), Assay 2. It is filed as biochemical. The gist of the method:
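ErbB2 phosphorylates 250 nM biotin-TK substrate at 1 mM ATP in 25 mM HEPES pH 7.4, 10 mM MgCl2, 0.01% Triton X-100 and 2% DMSO, for 30 min at 22 °C. Product is detected by HTRF with Sa-XL665 and TK-Ab-Cryptate. Percent of control is set by DMSO-only wells and pre-quenched wells.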

The target of another data set is EGFR (Homo sapiens (Human), UniProt P00533). As to the kind of experiment: ErbB enzyme assay (CisBio HTRF KinEASE-TK), Assay 3. It is filed as biochemical. The gist of the method:
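Inhibition is measured as reduced peptide phosphorylation by HTRF KinEASE-TK at 1 mM ATP and 250 nM substrate, 30 min at 22 °C. Values are IC50s from a 4-parameter logistic fit.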

The target of data set [2] is ErbB2 with Exon 20 YVMA insertion (HER2-YVMA) (Homo sapiens (Human), UniProt P04626, INS775YVMA). The data set can be described thus: Cellular phosphorylation assay, constitutive ErbB2 phosphorylation (Y1196) in engineered NIH 3T3 cells, Assay 4. It is filed as cell-based. In outline: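 Engineered NIH 3T3 cells expressing HER2-YVMA treated with compounds 1 h at 37 °C, then formaldehyde-fixed and methanol-permeabilized. pErbB2 Y1196 detected by in-cell infrared immunofluorescence, normalized to GAPDH. IC50 from the normalized curves.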

Another data set has as its target EGFR wild type (EGFR WT) (Homo sapiens (Human), UniProt P00533). The data set can be described thus: Cellular phosphorylation assay, EGF-stimulated EGFR phosphorylation in engineered NIH 3T3 cells, Phospho-EGFR DuoSet IC ELISA, Assay 5. It is filed as cell-based. The gist of the method: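 NIH 3T3 cells expressing EGFR WT (20,000/well, attached overnight) were exposed to serially diluted compound for 1 h at 37 °C, then stimulated with 100 ng/ml rEGF for 10 min. Phospho-EGFR in lysates measured by sandwich ELISA optical density; IC50 from curves.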
A general note: In an ELISA, binding on a coated surface is turned into a signal by an enzyme label.

The next data set addresses BCRP (Homo sapiens (Human), UniProt Q9UNQ0). As to the kind of experiment: BCRP transfected MDCKII canine Mdr1 knockout permeability/efflux, Assay 9. Particulars: dog, Assay 9 Pe Ratio, efflux ratio Papp(B-A)/Papp(A-B), BCRP transfected MDCKII canine Mdr1 knockout.

Sequence of ErbB2 insYVMA (HER2-YVMA, SEQ ID NO: 2) (P04626 with tags, fused parts or gaps INS775YVMA/P1170A limits assumed): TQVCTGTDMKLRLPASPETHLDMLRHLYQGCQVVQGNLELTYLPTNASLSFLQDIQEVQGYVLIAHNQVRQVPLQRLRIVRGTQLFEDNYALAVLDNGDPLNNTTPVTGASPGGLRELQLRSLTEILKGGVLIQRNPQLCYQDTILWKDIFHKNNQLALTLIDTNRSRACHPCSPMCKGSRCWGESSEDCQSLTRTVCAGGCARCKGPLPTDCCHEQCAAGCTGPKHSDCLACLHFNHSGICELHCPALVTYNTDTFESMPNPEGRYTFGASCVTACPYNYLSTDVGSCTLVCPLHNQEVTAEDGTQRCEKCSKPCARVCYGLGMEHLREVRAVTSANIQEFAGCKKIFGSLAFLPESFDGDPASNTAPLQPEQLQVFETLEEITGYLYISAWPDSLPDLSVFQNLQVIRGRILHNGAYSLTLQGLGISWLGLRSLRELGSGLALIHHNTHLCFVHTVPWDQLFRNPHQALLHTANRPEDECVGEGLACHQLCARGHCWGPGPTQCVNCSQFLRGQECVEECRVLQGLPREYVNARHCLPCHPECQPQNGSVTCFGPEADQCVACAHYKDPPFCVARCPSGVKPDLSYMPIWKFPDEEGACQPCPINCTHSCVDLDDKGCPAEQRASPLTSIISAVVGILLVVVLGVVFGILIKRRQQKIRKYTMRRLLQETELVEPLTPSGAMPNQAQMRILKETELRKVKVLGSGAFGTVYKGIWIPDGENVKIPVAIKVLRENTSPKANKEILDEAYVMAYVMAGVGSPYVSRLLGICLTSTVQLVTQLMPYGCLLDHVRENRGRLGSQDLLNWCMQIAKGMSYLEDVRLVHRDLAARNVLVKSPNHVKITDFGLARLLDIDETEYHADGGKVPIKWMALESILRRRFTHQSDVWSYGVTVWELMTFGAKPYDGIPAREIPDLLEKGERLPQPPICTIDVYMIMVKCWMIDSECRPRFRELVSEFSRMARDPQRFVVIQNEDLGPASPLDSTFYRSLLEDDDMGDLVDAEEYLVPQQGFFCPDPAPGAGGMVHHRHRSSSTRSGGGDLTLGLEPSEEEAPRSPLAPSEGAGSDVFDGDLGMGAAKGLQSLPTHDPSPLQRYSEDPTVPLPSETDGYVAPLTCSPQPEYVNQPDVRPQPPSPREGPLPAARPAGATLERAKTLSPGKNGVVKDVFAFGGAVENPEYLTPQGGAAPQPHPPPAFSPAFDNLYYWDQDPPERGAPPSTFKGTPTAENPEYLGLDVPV
Sequence of ErbB2 with Exon 20 YVMA insertion (HER2-YVMA) (P04626 other isoform, or with tags, fused parts or gaps ins YVMA behind 775): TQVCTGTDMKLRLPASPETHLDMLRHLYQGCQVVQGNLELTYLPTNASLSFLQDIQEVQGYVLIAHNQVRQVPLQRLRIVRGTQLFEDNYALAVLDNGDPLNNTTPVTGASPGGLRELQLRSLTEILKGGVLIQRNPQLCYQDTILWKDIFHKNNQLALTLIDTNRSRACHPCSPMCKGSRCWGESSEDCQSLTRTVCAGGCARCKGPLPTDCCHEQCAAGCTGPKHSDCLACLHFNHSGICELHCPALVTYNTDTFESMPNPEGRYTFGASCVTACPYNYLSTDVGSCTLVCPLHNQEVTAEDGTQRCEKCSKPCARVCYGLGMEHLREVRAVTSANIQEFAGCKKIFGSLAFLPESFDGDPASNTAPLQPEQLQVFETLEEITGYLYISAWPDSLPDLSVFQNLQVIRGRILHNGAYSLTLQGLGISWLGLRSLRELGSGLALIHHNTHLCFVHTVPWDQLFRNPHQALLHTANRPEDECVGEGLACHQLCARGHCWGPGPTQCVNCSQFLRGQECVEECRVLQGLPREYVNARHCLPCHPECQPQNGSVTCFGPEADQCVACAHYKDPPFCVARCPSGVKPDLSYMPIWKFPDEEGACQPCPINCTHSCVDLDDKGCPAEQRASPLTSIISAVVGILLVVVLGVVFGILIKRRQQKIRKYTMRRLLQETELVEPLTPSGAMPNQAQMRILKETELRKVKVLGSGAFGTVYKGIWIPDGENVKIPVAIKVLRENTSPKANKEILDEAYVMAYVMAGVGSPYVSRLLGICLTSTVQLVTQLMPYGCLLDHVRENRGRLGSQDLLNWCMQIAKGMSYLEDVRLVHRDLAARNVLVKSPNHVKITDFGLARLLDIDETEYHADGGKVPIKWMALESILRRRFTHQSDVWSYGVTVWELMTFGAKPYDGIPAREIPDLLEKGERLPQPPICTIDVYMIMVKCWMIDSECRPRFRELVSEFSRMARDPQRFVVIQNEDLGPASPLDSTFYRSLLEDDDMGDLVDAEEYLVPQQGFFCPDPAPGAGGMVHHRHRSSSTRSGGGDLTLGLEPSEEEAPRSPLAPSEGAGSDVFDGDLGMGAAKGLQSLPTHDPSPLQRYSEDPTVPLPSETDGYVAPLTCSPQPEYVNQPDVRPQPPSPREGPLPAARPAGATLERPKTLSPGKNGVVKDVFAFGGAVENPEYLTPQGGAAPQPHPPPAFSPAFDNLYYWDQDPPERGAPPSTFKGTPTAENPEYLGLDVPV
Sequence of EGFR (P00533 25-1210): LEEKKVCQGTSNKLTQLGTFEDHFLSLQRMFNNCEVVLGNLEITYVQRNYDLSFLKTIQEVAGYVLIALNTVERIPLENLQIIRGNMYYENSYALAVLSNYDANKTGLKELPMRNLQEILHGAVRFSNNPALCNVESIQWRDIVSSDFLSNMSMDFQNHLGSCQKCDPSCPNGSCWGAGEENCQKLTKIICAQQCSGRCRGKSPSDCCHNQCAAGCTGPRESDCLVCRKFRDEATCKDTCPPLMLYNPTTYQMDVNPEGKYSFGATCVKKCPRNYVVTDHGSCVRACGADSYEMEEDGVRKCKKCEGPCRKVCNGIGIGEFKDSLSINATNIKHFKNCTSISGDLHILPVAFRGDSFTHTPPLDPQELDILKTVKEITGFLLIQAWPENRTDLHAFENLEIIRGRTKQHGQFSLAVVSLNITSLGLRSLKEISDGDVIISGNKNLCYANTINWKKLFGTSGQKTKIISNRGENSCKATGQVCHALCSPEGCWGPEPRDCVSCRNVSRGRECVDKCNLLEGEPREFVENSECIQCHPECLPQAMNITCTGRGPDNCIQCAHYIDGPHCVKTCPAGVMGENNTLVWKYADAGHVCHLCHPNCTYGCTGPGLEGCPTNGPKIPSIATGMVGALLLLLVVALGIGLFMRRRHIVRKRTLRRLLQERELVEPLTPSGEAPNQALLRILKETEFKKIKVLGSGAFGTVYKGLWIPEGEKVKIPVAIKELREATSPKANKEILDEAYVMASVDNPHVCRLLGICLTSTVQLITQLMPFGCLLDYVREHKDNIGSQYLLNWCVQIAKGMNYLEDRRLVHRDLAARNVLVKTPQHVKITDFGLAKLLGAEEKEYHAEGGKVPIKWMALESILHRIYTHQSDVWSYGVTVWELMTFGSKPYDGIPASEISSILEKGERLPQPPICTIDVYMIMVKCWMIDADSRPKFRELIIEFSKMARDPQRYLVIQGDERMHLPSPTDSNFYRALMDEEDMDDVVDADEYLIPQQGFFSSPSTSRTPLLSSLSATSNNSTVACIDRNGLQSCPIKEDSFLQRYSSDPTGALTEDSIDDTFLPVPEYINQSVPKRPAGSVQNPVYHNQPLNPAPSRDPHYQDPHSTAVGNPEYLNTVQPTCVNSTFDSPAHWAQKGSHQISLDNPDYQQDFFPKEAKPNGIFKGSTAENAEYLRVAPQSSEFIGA
Sequence of EGFR wild type (EGFR WT) (P00533 25-1210): as above

In general, IC50 refers to the concentration that inhibits the measured activity by half. One may read the efflux ratio as the permeability from basolateral to apical divided by that in the opposite direction, in the common usage. Take `CON1CCN(c2ncc3ncnc(Nc4ccc(Oc5ccc6c(c5)ncn6C)c(Cl)c4)c3n2)CC1.O=C(O)C(F)(F)F` [Example 141, N-(3-chloro-4-((1-methyl-1H-benzo[d]imidazol-5-yl)oxy)phenyl)-6-(4-methoxypiperazin-1-yl)pyrimido[5,4-d]pyrimidin-4-amine 2,2,2-trifluoroacetate]: the half-inhibitory concentration (IC50) was 23.2 nM in data set [1] (Assay 1 IC50 (nM)); 0.0259 µM against ErbB2 WT; 4.44 µM at EGFR; 0.0171 µM in data set [2]; not below 5 µM on EGFR wild type (EGFR WT). Moreover, the efflux ratio at 2 h, 1 μM at BCRP was 1.4.
As for `Cc1cc(Nc2ncnc3cnc(N(C)CC4(O)CCC4)nc23)ccc1Oc1ccc2c(c1)ncn2C` [Example 164, 1-((methyl(8-((3-methyl-4-((1-methyl-1H-benzo[d]imidazol-5-yl)oxy)phenyl)amino)pyrimido[5,4-d]pyrimidin-2-yl)amino)methyl)cyclobutan-1-ol], the IC50 in data set [1] (read-out: Assay 1 IC50) was 28 nM; on ErbB2 WT, 0.0523 µM; against EGFR it was not below 10 µM; in data set [2], 0.009 µM; on EGFR wild type (EGFR WT), not below 5 µM. Further, the efflux ratio at 2 h, 1 μM at BCRP was found to be 2.2.
`Cc1cc(Nc2ncnc3cnc(N4C[C@H]5COC[C@H]5C4)nc23)ccc1Oc1ccc2c(c1)ncn2C` [Example 466]: the IC50 in data set [1] (read-out: Assay 1 IC50) is 24.1 nM; at ErbB2 WT, 0.0613 µM; at EGFR it was not below 10 µM; in data set [2] it was 0.0162 µM; on EGFR wild type (EGFR WT) it was not below 5 µM.
As for `Cc1cc(Nc2ncnc3cnc(N(C)[C@H]4C[C@@H](C(C)(C)O)C4)nc23)ccc1Oc1ccc2c(c1)ncn2C` [Example 467], the IC50 was 26.4 nM in data set [1] (read-out: Assay 1 IC50); 0.0345 µM on ErbB2 WT; 4.79 µM against EGFR; 0.0194 µM in data set [2]; not below 5 µM against EGFR wild type (EGFR WT).
For the compound `Cc1cc(Nc2ncnc3cnc(N4C[C@@H](O)C(C)(C)C4)nc23)ccc1Oc1ccc2c(c1)ncn2C` [Example 468], the IC50 was 39.1 nM in data set [1] (read-out: Assay 1 IC50); 0.13 µM against ErbB2 WT; not below 10 µM on EGFR; 0.0872 µM in data set [2]; not below 5 µM against EGFR wild type (EGFR WT).
With `Cc1cc(Nc2ncnc3cnc(N4C[C@@H]5C[C@H]4C[C@H]5O)nc23)ccc1Oc1ccc2c(c1)ncn2C` [Example 471], the IC50 in data set [1] (read-out: Assay 1 IC50) was 7.1 nM; against ErbB2 WT, 0.0494 µM; at EGFR, not below 10 µM; in data set [2] it was 0.0425 µM; against EGFR wild type (EGFR WT) it was not below 5 µM.
Take `Cc1cc(Nc2ncnc3cnc(N4CCC(C)(C#N)C4)nc23)ccc1Oc1ccc2c(c1)ncn2C` (centres unmarked) [Example 475]: the IC50 is 22.4 nM in data set [1] (read-out: Assay 1 IC50); 0.0886 µM against ErbB2 WT; not below 10 µM against EGFR; 0.0826 µM in data set [2]; not below 5 µM against EGFR wild type (EGFR WT).
For `Cc1cc(Nc2ncnc3cnc(N4CCN(CC(F)F)CC4)nc23)ccc1Oc1ccc2c(c1)ncn2C` [Example 477], in that order: 59.6 nM, 0.0471 µM, not below 10 µM, 0.0533 µM and not below 5 µM.
For the compound `CCN(CC(C)(C)O)c1ncc2ncnc(Nc3ccc(Oc4ccc5c(c4)ncn5C)c(C)c3)c2n1` [Example 478], the IC50 was 27.9 nM in data set [1] (read-out: Assay 1 IC50); 0.0416 µM at ErbB2 WT; not below 10 µM at EGFR; 0.109 µM in data set [2]; not below 5 µM on EGFR wild type (EGFR WT).
Consider `CN(CCC(C)(C)O)c1ncc2ncnc(Nc3ccc(Oc4ccc5c(c4)ncn5C)c(Cl)c3)c2n1` [Example 479], for which the IC50 in data set [1] (read-out: Assay 1 IC50) was 26.5 nM; against ErbB2 WT it was 0.0244 µM; against EGFR it was 2.21 µM; in data set [2] it was 0.0129 µM; on EGFR wild type (EGFR WT), not below 5 µM.
`Cn1cnc2cc(Oc3ccc(Nc4ncnc5cnc(N6CCC(C)(O)CC6)nc45)cc3Cl)ccc21` [Example 480]: the 50% inhibitory concentration (IC50) in data set [1] (read-out: Assay 1 IC50) is 18.1 nM; on ErbB2 WT, 0.0233 µM; against EGFR, 5.04 µM; in data set [2], 0.0044 µM; at EGFR wild type (EGFR WT), not below 5 µM.
Turning to `Cc1cc(Nc2ncnc3cnc(N4C[C@H]5C[C@@H]4CO5)nc23)c(F)cc1Oc1ccc2c(c1)ncn2C` [Example 481], the 50% inhibitory concentration (IC50) is 29.4 nM in data set [1] (read-out: Assay 1 IC50); 0.0412 µM on ErbB2 WT; not below 10 µM against EGFR; 0.0742 µM in data set [2]; not below 5 µM at EGFR wild type (EGFR WT).
Regarding `Cc1cc(Nc2ncnc3cnc(N4CCC(C)(O)CC4)nc23)c(Cl)cc1Oc1ccc2c(c1)ncn2C` [Example 482], the half-maximal inhibitory concentration (IC50) in data set [1] (read-out: Assay 1 IC50) is 76.7 nM; against ErbB2 WT, 0.446 µM; on EGFR, not below 10 µM; in data set [2], 0.229 µM; against EGFR wild type (EGFR WT), not below 5 µM.
For `CCON1CCN(c2ncc3ncnc(Nc4ccc(Oc5ccc6c(c5)ncn6C)c(C)c4)c3n2)CC1` [Example 483] the same measures were 76.5 nM, 0.262 µM, not below 10 µM, 0.0586 µM and not below 5 µM.
Turning to `Cn1cnc2cc(Oc3ccc(Nc4ncnc5cnc(N6CCN(CC(F)F)CC6)nc45)cc3Cl)ccc21` [Example 484], the IC50 in data set [1] (read-out: Assay 1 IC50) was 34.4 nM; on ErbB2 WT, 0.124 µM; on EGFR, not below 10 µM; in data set [2], 0.0227 µM; against EGFR wild type (EGFR WT), not below 5 µM.
As for `CON1CCN(c2ncc3ncnc(Nc4cc(C)c(Oc5ccc6c(c5)ncn6C)cc4F)c3n2)CC1` [Example 486], the IC50 in data set [1] (read-out: Assay 1 IC50) is 29.6 nM; against ErbB2 WT, 0.138 µM; against EGFR, not below 10 µM; in data set [2], 0.133 µM; on EGFR wild type (EGFR WT), not below 5 µM.
On to `Cc1cc(Nc2ncnc3cnc(N4CC5(C4)CC(O)(C(F)(F)F)C5)nc23)ccc1Oc1ccc2c(c1)ncn2C` [Example 487], for which the 50% inhibitory concentration (IC50) is 62.1 nM in data set [1] (read-out: Assay 1 IC50); 0.0457 µM against ErbB2 WT; not below 10 µM on EGFR; 0.0491 µM in data set [2]; not below 5 µM against EGFR wild type (EGFR WT).
For `Cc1cc(Nc2ncnc3cnc(N4C[C@@H](O)C5(CC5)C4)nc23)c(Cl)cc1Oc1ccc2c(c1)ncn2C` [Example 488], in that order: 73.8 nM, 0.174 µM, not below 10 µM, 0.118 µM and not below 5 µM.
Consider `Cn1cnc2cc(Oc3ccc(Nc4ncnc5cnc(N6CC[C@@H]7COC[C@H]76)nc45)cc3Cl)ccc21` [Example 489], for which the IC50 was 17.7 nM in data set [1] (read-out: Assay 1 IC50); 0.0097 µM on ErbB2 WT; 3.37 µM at EGFR; 0.0164 µM in data set [2]; not below 5 µM against EGFR wild type (EGFR WT).
Turning to `Cc1cc(Nc2ncnc3cnc(N(C)CC(C)(C)O)nc23)c(F)cc1Oc1ccc2c(c1)ncn2C` [Example 491], the IC50 in data set [1] (read-out: Assay 1 IC50) is 27.8 nM; against ErbB2 WT it was 0.0369 µM; at EGFR, not below 10 µM; in data set [2] it was 0.0786 µM; against EGFR wild type (EGFR WT), not below 5 µM.
For `Cn1cnc2cc(Oc3ccc(Nc4ncnc5cnc(N6C[C@@H]7C[C@H]6C[C@H]7O)nc45)cc3Cl)ccc21` [Example 492], in that order: 24.7 nM, 0.0378 µM, 4.73 µM, 0.0372 µM and not below 5 µM.

For the origin of these results see US11834453B2, “Substituted pyrimido[5,4-d]pyrimidines as HER2 inhibitors” (Array BioPharma Inc., priority 2020, dated 2023).
